# Laboratory results taken from publication PMC5430599, “Antiplasmodial dihetarylthioethers target the coenzyme A synthesis pathway in Plasmodium falciparum erythrocytic stages” (Malaria Journal, 2017).
# Read-outs that look alike come from different tables or passages of the source.
# Columns and labels:
# Plasmodium falciparum = test system: Plasmodium falciparum; set-up: method as in PMID 27855724; details: addition of pantethine; cited from earlier work
# [1] = test system: human embryonic kidney (HEK-293) cells; assay: Cytotoxicity assay: human HEK-293 cell line (resazurin); type: cell-based; details: Homo sapiens, read-out: IC50 [µM], HEK-293
# Protocol: Cytotoxicity against human embryonic kidney (HEK-293) cells was assessed as previously described. […] Cells were detached using Accutase treatment, then seeded into black clear-bottom 384-wells fluorescence microplates (Greiner), at a cell density of 44,000 cells/mL in 45 µL/well, using a Benchtop liquid dispenser (Thermo Fisher Multidrop). After seeding, the cells were brought back to the incubator and allowed to settle and reattach overnight. […] Plates were incubated at the standard condition above for 72 h. At the end of the incubation the medium in each well was replaced with 1 mM resazurin, and the plates were read using a multilabel microplate reader (PerkinElmer Envision) at 530 nm excitation and 595 nm emission wavelengths after a further 6 h incubation. Inhibition data was generated using Office Excel 2013 (Microsoft). IC50 values were calculated by fitting a four-parameter nonlinear regression model using Prism v.6.0 (Graphpad Software Inc., La Jolla, CA, USA).
# [2] = test system: Plasmodium falciparum parasites (3D7 strain); assay: Coenzyme A rescue assay (imaging-based growth inhibition, with or without 0.8 mM CoA); type: cell-based; details: for rescue by coenzyme A supplementation (in words): 0.8 mM CoA; for IC50 shift with CoA supplementation: IC50 CoA / IC50 solvent; for IC50-ratio (CoA/solvent): IC50 with 0.8 mM CoA / IC50 solvent, threshold 5× significant; for IC50: Plasmodium falciparum, 3D7, 72 h
# Protocol: Plasmodium falciparum parasites (3D7 strain) were grown in RPMI 1640 supplemented with 25 mM HEPES, 5 mg/mL Albumax II, and 0.37 mM hypoxanthine. Parasites were subjected to two rounds of sorbitol synchronization before undergoing compound treatment. Ring stage parasites were exposed to the experimental compounds alone, or in combination with 0.8 mM coenzyme A (CoA) in 384-wells imaging microplates (CellCarrier, PerkinElmer), as previously described. […] Puromycin 5 µM and untreated solvent were used as in-plate positive and negative controls, respectively. Samples were dissolved in DMSO to a final assay DMSO concentration of 0.4%. […] All sample and control wells contained the same final amounts of solvents. Plates were incubated for 72 h at 90% N2, 5% CO2, 5% O2, then parasites were stained with 2-(4-amidinophenyl)-1H-indole-6-carboxamidine (DAPI), and imaged using an Opera QEHS micro-plate confocal imaging system (PerkinElmer) with 405 nm excitation and 450/50 emission filter, using a 20× water immersion objective. Images were analysed as previously described, to obtain normalized % inhibition data, which were then used to calculate IC50 values, through a four parameter logistic curve fitting in GraphPad Prism v.6. The experiment was carried out in two independent biological replicates, each consisting of two technical replicates. Dose–response curves are illustrated in the Additional file 4.
# [3] = test system: asexual erythrocytic stages of transgenic NF54-luc P. falciparum; assay: Luciferase-based viability screening for anti-malarial activity; type: cell-based, Plasmodium falciparum; details: for % inhibition, PfNF54-Luc at 3 µM: 48 h; for % inhibition, PfNF54-Luc at 3 µM / inhibition at 3 µM: >50% inhibition of viability rated active; for inhibition at 3 µM: read-out: % inhibition, PfNF54-Luc at 3 µM, 3 µM, 48 h
# Protocol: Asexual erythrocytic stages of transgenic NF54-luc P. falciparum were used for the luciferase-based viability assay. These parasites constitutively express high levels of luciferase. The parasites were cultured as described previously. Parasite culture with parasitaemia of 0.5–1% was dispensed in triplicate into white 96-well flat-bottom plates (each well contains 250 µL) (NUNC, Roskilde, […], 90% N2, 5% CO2, and 5% O2). 0.01% DMSO was included in the untreated infected RBC cultures as negative control, since the compounds stock initially was diluted in DMSO and each treatment well also contained 0.01% DMSO. Subsequently, 100 µL RPMI1640 media was removed from each well and a 100 µL volume of the Bright-Glo® substrate solution added to each well. The resultant cleavage product of the reaction, light, was measured using a FLUOROSKAN FL luminometer (Thermo), to ascertain viable parasites. Untreated cultures were used as negative controls and to calculate the inhibition rate (0% inhibition of parasite growth). Blasticidin (Sigma-Aldrich, St. Louis, MO, USA), used for selection of transfected parasites, was included as a positive control on each plate and gave >90% inhibition of parasite growth at concentration 2 µg/mL. Compounds with >50% inhibition of viability were rated as actives. Experiments were performed in triplicate and were repeated at least twice.
# Plasmodium berghei = test system: Plasmodium berghei; set-up: method as in PMID 24900512; details: 50 mg/kg subcutaneously over 4 days; cited from earlier work
# [4] = 0.8 mM CoA (rescue), 72 h, read-out: IC50 [µM], Pf3D7 + 0.8 mM CoA
# [5] = no CoA (solvent, non-rescue), 72 h, read-out: IC50 [µM], Pf3D7 + solvent
# [6] = Plasmodium falciparum, NF54, 48 h
smiles,measurement,setting,value
"Cc1csc(Sc2ncnc3sccc23)n1 [Amb180780, reference compound]","rescue of activity by pantethine, dephospho CoA and CoA",Plasmodium falciparum,more than 75%
same,IC50,"[1]; HEK293, cytotoxicity, 72 h",> 40 µM
same,rescue by coenzyme A supplementation (in words),[2],rescued
same,IC50 shift with CoA supplementation,[2],> 13 fold
same,IC50-ratio (CoA/solvent),[2],40.8
same,IC50,[2]; [4],1.51 ± 0.19 µM
same,IC50,[2]; [5],0.037 ± 0.0017 µM
"C[C@@H]1CC[C@H]2[C@@H](C)C(=O)O[C@@H]3O[C@@]4(C)CC[C@@H]1[C@]32OO4 [Artemis, artemisinin, reference compound]",rescue by coenzyme A supplementation (in words),[2],not rescued
same,IC50,[2]; [4],0.0049 ± 0.0011 µM
same,IC50,[2]; [5],0.00337 ± 0.00065 µM
"CN(CC[C@H](N)CC(=O)N[C@H]1C=C[C@H](n2ccc(N)nc2=O)O[C@@H]1C(=O)O)C(=N)N [BS, Blasticidin, reference compound]",inhibition of parasite growth (positive control),[3]; 2 µg/mL,> 90%
same,"% inhibition, PfNF54-Luc at 3 µM",[3],99.3 ± 0.7%
"CCN(CC)CCCC(C)Nc1ccnc2cc(Cl)ccc12 (stereo not shown) [Chloroqu, Chloroquine, reference compound]",IC50,"[1]; HEK293, 72 h",> 40 µM
same,rescue by coenzyme A supplementation (in words),[2],not rescued
same,IC50-ratio (CoA/solvent),[2],1.39
same,IC50,"[2]; read-out: IC50 [µM], Pf3D7 + 0.8 mM CoA",0.0271 ± 0.0094 µM
same,IC50,"[2]; read-out: IC50 [µM], Pf3D7 + solvent",0.0195 ± 0.0034 µM
COc1ccc(-c2nnc(Sc3ncnc4sccc34)o2)cc1 [Compound 3c],inhibition at 30 µM,"[3]; Plasmodium falciparum, NF54, 48 h, read-out: % inhibition, PfNF54-Luc at 30 µM, 30 µM, 48 h",< 50%
CCN(CC)S(=O)(=O)c1ccc(-c2nnc(Sc3ncnc4sccc34)o2)cc1 [Compound 3d],inhibition at 3 µM,[3]; [6],-0.6 ± 5.4%
O=S(=O)(c1ccc(-c2nnc(Sc3ncnc4sccc34)o2)cc1)N1CCCCC1 [Compound 3e],inhibition at 3 µM,[3]; [6],-7.3 ± 6.9%
Clc1ccccc1-c1nnc(Sc2ncnc3sccc23)o1 [Compound 3f],inhibition at 3 µM,[3]; [6],1.5 ± 4.3%
Brc1ccccc1-c1nnc(Sc2ncnc3sccc23)o1 [Compound 3g],inhibition at 3 µM,[3]; [6],-13.1 ± 9.1%
CC1CCc2sc(-c3nnc(Sc4ncnc5sccc45)o3)cc2C1 (stereo not shown) [Compound 3h],inhibition at 3 µM,[3]; [6],-103 ± 4.4%
c1cncc(-c2nnc(Sc3ncnc4sccc34)o2)c1 [Compound 3i],inhibition at 3 µM,[3]; [6],-5.5 ± 3.8%
Cc1ccc(-c2nnc(Sc3ncnc4sccc34)o2)cc1 [Compound 3j],inhibition at 3 µM,[3]; [6],-11 ± 6.7%
CCc1ccc(-c2nnc(Sc3ncnc4sccc34)o2)cc1 [Compound 3k],inhibition at 3 µM,[3]; [6],-7 ± 1.8%
O=S(=O)(c1ccc(-c2nnc(Sc3ncnc4sccc34)o2)cc1)N1CCOCC1 [Compound 3l],inhibition at 3 µM,[3]; [6],24.3 ± 3.2%
Fc1ccc(-c2nnc(Sc3ncnc4sccc34)o2)cc1 [Compound 3m],inhibition at 3 µM,[3]; [6],-8.3 ± 4.1%
CC(C)(C)OC(=O)N1CCC(c2nnc(Sc3ncnc4sccc34)o2)CC1 [Compound 3n],inhibition at 3 µM,[3]; [6],-0.82 ± 3.11%
CC(C)(C)OC(=O)NCc1nnc(Sc2ncnc3sccc23)o1 [Compound 3o],inhibition at 3 µM,[3]; [6],2.28 ± 3.31%
CC(C)(C)c1nnc(Sc2ncnc3sccc23)o1 [Compound 3p],inhibition at 3 µM,[3]; [6],-14.6 ± 12.9%
OCc1nnc(Sc2ncnc3sccc23)o1 [Compound 3q],inhibition at 3 µM,[3]; [6],-12.3 ± 2.2%
c1nc(Sc2nnc(C3CCNCC3)o2)c2ccsc2n1 [Compound 3r],inhibition at 3 µM,[3]; [6],7.7 ± 1.8%
NCc1nnc(Sc2ncnc3sccc23)o1 [Compound 3s],inhibition at 3 µM,[3]; [6],-2.8 ± 16.6%
c1coc(-c2nnc(Sc3ncnc4[nH]ccc34)o2)c1 [Compound 6a],inhibition at 3 µM,[3]; [6],-24.8 ± 13.6%
c1coc(-c2nnc(Sc3ncnc4[nH]cnc34)o2)c1 [Compound 6b],inhibition at 3 µM,[3]; [6],1.79 ± 2.53%
N#Cc1nccnc1Sc1nnc(-c2ccco2)o1 [Compound 6c],inhibition at 3 µM,[3]; [6],0.98 ± 1.52%
c1coc(-c2nc(Sc3ncnc4sccc34)n[nH]2)c1 [Compound 8a],"% inhibition, PfNF54-Luc at 3 µM",[3],33.2 ± 6.8%
same,inhibition at 3 µM,[3]; [6],33%
same,IC50,"[1]; HEK293, cytotoxicity, 72 h",> 40 µM
same,IC50,[2]; [4],16.1 ± 2.2 µM
same,IC50,[2]; [5],10.5 ± 1.1 µM
Cn1cnnc1Sc1ncnc2sccc12 [Compound 8b],"% inhibition, PfNF54-Luc at 3 µM",[3],inactive
same,inhibition at 3 µM,[3]; [6],4.7 ± 2.6%
same,IC50,"[1]; HEK293, cytotoxicity, 72 h",> 40 µM
same,rescue by coenzyme A supplementation (in words),[2],significantly rescued
same,IC50 shift with CoA supplementation,[2],sevenfold
same,IC50-ratio (CoA/solvent),[2],7.39
same,IC50,[2]; [4],~40 µM
same,IC50,[2]; [5],6.4 ± 4.3 µM
Cc1ccc2nc(Sc3ncnc4sccc34)[nH]c2c1 [Compound 8h],"% inhibition, PfNF54-Luc at 3 µM",[3],inactive
same,inhibition at 3 µM,[3]; [6],-1.9 ± 5.3%
Clc1ccc2[nH]c(Sc3ncnc4sccc34)nc2c1 [Compound 8i],"% inhibition, PfNF54-Luc at 3 µM",[3],inactive
same,inhibition at 3 µM,[3]; [6],-18.4 ± 10.6%
COc1ccc2[nH]c(Sc3ncnc4sccc34)nc2c1 [Compound 8j],"% inhibition, PfNF54-Luc at 3 µM",[3],inactive
same,inhibition at 3 µM,[3]; [6],-36.3 ± 10.6%
"CC(C)(CO)C(O)C(=O)NCCCO (stereo not shown) [Pantoth, panthenol, reference compound]",rescue by coenzyme A supplementation (in words),[2],rescued
same,IC50,[2]; [5],752 ± 82 µM
"COc1ccc(C[C@H](N)C(=O)N[C@H]2[C@@H](O)[C@H](n3cnc4c(N(C)C)ncnc43)O[C@@H]2CO)cc1 [Puromyc, puromycin, reference compound]",IC50,"[1]; HEK293, cytotoxicity, 72 h",0.36 µM
same,rescue by coenzyme A supplementation (in words),[2],not rescued
same,IC50-ratio (CoA/solvent),[2],2.78
same,IC50,[2]; [4],0.0939 ± 0.0016 µM
c1ccn2c(Sc3ncnc4sccc34)nnc2c1 [compound 33],drop in parasitaemia,Plasmodium berghei,34%
same,life-span of infected animals,Plasmodium berghei,failed to prolong the life-span
